Assay results: the kinase profiling compilation of Christmann-Franck et al. (2016)
Values joined by “and” are separate entries in the source; they are usually repeats but may differ in a detail not shown here. Equal entries are not always repeated.

Assays:
Experiment in all cases: KINOMEscan competition binding
Details in all cases: compound 0.1 µM
FGFR1 (human) = FGFR1 (human) (UniProt P11362)
EIF2AK1 (human) = EIF2AK1 (human) (UniProt Q9BQI3)
AKT3 (human) = AKT3 (human) (UniProt Q9Y243)
ADCK4 (human) = ADCK4 (human) (UniProt Q96D53)
FGFR2 (human) = FGFR2 (human) (UniProt P21802)
PIK3CB (human) = PIK3CB (human) (UniProt P42338)
PHKG1 (human) = PHKG1 (human) (UniProt Q16816)
PAK7 (human) = PAK7 (human) (UniProt Q9P286)
MAP3K2 (human) = MAP3K2 (human) (UniProt Q9Y2U5)
RPS6KA5 KD1 (human) = RPS6KA5 KD1 (human) (UniProt O75582)
RIPK4 (human) = RIPK4 (human) (UniProt P57078)
PIM2 (human) = PIM2 (human) (UniProt Q9P1W9)
PIM2 (human), sequence (Q9P1W9 whole entry, looked up): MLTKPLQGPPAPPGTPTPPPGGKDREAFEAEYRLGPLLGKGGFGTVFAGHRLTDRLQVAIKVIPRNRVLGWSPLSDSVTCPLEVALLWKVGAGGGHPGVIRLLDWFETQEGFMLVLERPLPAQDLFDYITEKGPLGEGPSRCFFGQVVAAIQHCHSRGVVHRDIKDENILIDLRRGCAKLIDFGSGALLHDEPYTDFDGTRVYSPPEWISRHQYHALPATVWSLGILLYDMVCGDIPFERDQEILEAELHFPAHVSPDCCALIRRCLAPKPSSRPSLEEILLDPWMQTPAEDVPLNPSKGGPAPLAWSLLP

TGFBR1 (human) = TGFBR1 (human) (UniProt P36897)
CAMK1G (human) = CAMK1G (human) (UniProt Q96NX5)
PIK3C2G (human) = PIK3C2G (human) (UniProt O75747)
SIK1 (human) = SIK1 (human) (UniProt P57059)
CDK11B (human) = CDK11B (human) (UniProt P21127)
LIMK1 (human) = LIMK1 (human) (UniProt P53667)
TNK1 (human) = TNK1 (human) (UniProt Q13470)
EIF2AK2 (human) = EIF2AK2 (human) (UniProt P19525)
BMPR1A (human) = BMPR1A (human) (UniProt P36894)
BMPR1A (human), sequence (P36894 whole entry, looked up): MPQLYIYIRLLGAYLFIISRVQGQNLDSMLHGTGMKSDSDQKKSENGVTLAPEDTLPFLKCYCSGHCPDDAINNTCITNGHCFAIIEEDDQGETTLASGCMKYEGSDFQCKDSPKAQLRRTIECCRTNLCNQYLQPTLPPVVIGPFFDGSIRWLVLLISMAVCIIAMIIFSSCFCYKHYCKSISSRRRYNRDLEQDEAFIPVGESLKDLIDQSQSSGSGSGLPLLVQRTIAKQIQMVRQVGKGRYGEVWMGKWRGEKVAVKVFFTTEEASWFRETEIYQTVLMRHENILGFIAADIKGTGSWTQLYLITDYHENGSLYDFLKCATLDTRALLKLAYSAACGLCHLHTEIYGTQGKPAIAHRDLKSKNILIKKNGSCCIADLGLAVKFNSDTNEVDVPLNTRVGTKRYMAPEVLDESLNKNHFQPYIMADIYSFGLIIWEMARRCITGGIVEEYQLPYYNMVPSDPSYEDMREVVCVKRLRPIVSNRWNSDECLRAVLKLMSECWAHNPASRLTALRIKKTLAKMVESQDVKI

[1] = tested on: ABL1 (human), P00519 [M351T]
AXL (human) = AXL (human) (UniProt P30530)
RIPK1 (human) = RIPK1 (human) (UniProt Q13546)
RIPK1 (human), sequence (Q13546 whole entry, looked up): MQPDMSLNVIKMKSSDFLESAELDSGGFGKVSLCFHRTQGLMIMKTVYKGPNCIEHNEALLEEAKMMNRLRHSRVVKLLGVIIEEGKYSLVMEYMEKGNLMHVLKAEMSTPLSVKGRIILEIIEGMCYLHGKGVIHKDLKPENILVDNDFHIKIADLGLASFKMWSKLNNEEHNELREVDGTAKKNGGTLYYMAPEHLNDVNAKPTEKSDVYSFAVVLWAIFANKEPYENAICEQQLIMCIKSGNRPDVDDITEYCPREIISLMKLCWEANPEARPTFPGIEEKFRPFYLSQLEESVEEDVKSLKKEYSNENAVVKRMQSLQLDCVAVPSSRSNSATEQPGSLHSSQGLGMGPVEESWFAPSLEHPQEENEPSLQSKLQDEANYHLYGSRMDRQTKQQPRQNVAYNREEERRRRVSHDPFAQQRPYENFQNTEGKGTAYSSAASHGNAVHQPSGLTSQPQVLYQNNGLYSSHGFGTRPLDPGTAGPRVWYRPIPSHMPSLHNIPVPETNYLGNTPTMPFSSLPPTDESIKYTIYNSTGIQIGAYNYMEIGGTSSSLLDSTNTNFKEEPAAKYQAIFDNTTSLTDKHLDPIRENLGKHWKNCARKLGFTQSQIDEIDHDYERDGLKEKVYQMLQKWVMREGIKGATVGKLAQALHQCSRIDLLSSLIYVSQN

[2] = molecular target: JAK1 JH2 pseudokinase (human) (UniProt P23458)
CDK4 CCND1 (human) = CDK4 CCND1 (human) (UniProt P11802+P24385)
[3] = tested on: ABL1 (human), P00519 [H396P]
MAPK9 (human) = MAPK9 (human) (UniProt P45984)
[4] = tested on: EGFR (human), P00533 [T790M/L858R]
MAP4K3 (human) = MAP4K3 (human) (UniProt Q8IVH8)
[5] = molecular target: TYK2 JH1 catalytic (human) (UniProt P29597)
MAP2K6 (human) = MAP2K6 (human) (UniProt P52564)
[6] = tested on: ABL1 (human), P00519 [F317L]
MAP3K5 (human) = MAP3K5 (human) (UniProt Q99683)
MAP3K5 (human), sequence (Q99683 whole entry, looked up): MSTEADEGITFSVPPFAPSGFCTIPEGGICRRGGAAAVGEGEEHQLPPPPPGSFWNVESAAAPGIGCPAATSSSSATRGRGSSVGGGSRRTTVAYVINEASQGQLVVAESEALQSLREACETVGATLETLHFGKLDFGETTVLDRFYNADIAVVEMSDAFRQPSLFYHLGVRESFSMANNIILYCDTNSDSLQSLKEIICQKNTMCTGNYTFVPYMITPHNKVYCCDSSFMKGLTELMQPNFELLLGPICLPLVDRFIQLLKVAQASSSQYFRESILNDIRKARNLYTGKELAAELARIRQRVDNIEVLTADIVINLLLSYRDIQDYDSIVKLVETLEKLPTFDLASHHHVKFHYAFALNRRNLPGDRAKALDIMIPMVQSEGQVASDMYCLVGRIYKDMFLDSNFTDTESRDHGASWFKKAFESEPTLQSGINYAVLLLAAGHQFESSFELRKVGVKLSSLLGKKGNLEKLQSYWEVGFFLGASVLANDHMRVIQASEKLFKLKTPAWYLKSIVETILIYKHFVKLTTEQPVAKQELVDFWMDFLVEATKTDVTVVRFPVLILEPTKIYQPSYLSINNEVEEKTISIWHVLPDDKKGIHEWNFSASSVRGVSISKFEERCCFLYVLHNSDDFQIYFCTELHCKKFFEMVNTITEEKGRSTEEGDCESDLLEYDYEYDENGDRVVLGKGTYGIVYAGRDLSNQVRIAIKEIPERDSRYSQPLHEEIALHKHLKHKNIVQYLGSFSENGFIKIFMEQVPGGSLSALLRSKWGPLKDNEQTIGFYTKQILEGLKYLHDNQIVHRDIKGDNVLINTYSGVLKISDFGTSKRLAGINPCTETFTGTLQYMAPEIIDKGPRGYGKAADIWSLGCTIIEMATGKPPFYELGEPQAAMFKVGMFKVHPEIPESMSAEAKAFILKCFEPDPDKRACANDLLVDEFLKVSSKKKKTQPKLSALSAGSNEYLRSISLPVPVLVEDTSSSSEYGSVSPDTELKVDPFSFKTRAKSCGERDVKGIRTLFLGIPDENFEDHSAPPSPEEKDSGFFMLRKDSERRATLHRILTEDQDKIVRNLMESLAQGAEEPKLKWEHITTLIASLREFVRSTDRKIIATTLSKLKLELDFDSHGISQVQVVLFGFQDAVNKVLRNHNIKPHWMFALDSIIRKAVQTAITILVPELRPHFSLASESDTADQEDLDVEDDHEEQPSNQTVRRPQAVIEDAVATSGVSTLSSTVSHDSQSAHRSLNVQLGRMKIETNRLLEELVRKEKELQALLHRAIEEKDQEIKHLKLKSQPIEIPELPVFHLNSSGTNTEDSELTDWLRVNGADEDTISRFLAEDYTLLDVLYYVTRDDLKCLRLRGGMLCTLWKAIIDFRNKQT

FLT3 (human) = FLT3 (human) (UniProt P36888)
FLT3 (human), sequence (P36888 whole entry, looked up): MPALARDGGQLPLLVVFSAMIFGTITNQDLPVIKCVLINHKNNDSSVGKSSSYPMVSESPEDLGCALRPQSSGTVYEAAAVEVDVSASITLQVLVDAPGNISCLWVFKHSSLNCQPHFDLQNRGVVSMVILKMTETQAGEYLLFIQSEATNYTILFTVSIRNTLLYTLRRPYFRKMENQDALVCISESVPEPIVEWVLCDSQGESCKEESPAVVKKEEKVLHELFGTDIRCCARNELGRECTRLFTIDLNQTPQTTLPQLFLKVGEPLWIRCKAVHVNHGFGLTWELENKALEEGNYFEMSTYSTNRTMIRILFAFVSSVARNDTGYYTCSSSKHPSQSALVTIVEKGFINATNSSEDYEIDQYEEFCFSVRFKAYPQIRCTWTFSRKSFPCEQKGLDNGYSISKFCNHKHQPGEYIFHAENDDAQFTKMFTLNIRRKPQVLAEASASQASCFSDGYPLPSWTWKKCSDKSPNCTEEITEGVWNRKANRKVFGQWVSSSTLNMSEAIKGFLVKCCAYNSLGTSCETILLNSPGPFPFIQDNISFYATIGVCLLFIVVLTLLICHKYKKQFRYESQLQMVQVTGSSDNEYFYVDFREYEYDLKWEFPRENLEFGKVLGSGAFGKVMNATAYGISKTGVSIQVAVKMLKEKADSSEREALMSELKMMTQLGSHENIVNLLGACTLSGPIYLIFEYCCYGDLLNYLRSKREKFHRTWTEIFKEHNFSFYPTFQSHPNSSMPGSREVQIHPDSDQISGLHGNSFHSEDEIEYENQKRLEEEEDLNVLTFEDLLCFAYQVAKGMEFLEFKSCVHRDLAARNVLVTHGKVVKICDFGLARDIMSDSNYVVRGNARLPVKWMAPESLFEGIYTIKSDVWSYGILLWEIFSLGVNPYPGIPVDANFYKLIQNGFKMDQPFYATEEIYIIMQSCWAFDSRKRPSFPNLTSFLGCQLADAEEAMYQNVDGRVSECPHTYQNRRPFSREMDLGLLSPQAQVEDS

STK38L (human) = STK38L (human) (UniProt Q9Y2H1)
[7] = tested on: KIT (human), P10721 [V559D/T670I]
MYLK3 (human) = MYLK3 (human) (UniProt Q32MK0)
STK32B (human) = STK32B (human) (UniProt Q9NY57)
[8] = tested on: PIK3CA (human), P42336 [E545K]
PIK3CA (human), P42336 [E545K], sequence (P42336 whole entry E545K, looked up): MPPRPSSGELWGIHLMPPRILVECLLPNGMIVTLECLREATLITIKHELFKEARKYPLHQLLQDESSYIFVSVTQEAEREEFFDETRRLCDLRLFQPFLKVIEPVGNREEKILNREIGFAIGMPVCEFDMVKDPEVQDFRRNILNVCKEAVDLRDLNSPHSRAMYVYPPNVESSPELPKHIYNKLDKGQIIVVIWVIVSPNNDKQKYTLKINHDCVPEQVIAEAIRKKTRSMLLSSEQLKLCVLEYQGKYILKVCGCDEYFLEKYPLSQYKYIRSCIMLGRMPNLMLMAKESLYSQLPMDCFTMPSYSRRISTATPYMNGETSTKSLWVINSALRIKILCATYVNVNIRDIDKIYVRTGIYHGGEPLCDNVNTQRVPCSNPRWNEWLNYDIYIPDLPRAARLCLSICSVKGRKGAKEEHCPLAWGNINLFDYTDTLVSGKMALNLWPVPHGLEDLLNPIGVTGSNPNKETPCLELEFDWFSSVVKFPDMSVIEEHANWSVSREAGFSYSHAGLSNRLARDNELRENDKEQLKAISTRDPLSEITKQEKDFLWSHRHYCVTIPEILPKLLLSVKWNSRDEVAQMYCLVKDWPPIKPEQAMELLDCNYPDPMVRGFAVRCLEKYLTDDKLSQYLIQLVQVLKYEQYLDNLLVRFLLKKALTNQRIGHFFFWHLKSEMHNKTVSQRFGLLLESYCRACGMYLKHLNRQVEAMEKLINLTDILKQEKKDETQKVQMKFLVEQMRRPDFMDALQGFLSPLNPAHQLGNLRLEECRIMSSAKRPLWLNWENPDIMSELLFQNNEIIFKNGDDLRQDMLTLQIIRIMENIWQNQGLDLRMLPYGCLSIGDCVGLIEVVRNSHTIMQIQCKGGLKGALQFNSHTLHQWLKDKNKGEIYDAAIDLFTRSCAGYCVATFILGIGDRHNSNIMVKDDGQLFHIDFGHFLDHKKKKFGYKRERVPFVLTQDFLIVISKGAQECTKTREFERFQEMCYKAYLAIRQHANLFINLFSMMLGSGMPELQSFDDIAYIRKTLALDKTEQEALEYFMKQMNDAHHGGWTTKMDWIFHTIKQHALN

CCc1ccc(C(=O)Nc2cc(CN3CCN(C)CC3)cc(C(F)(F)F)c2)cc1C#Cc1cnc2ccnn2c1
kinase still bound, per cent of control (FGFR1 (human)): 84% | kinase still bound, per cent of control (EIF2AK1 (human)): 100% | kinase still bound, per cent of control (AKT3 (human)): 100% | kinase still bound, per cent of control (ADCK4 (human)): 100% | kinase still bound, per cent of control (FGFR2 (human)): 100% | kinase still bound, per cent of control (PIK3CB (human)): 100% | kinase still bound, per cent of control (PHKG1 (human)): 85% | kinase still bound, per cent of control (PAK7 (human)): 85% | kinase still bound, per cent of control (MAP3K2 (human)): 100% | kinase still bound, per cent of control (RPS6KA5 KD1 (human)): 93% | kinase still bound, per cent of control (RIPK4 (human)): 100% | kinase still bound, per cent of control (PIM2 (human)): 96% | kinase still bound, per cent of control (TGFBR1 (human)): 100% | kinase still bound, per cent of control (CAMK1G (human)): 71% | kinase still bound, per cent of control (PIK3C2G (human)): 100% | kinase still bound, per cent of control (SIK1 (human)): 100% | kinase still bound, per cent of control (CDK11B (human)): 100% | kinase still bound, per cent of control (LIMK1 (human)): 85% | kinase still bound, per cent of control (TNK1 (human)): 52% | kinase still bound, per cent of control (EIF2AK2 (human)): 83% | kinase still bound, per cent of control (BMPR1A (human)): 100% | kinase still bound, per cent of control [1]: 100% | kinase still bound, per cent of control (AXL (human)): 100% | kinase still bound, per cent of control (RIPK1 (human)): 100% | kinase still bound, per cent of control [2]: 100% | kinase still bound, per cent of control (CDK4 CCND1 (human)): 100% | kinase still bound, per cent of control [3]: 100% | kinase still bound, per cent of control (MAPK9 (human)): 100% | kinase still bound, per cent of control [4]: 48% | kinase still bound, per cent of control (MAP4K3 (human)): 100% | kinase still bound, per cent of control [5]: 100% | kinase still bound, per cent of control (MAP2K6 (human)): 100% | kinase still bound, per cent of control [6]: 86% | kinase still bound, per cent of control (MAP3K5 (human)): 100% | kinase still bound, per cent of control (FLT3 (human)): 78% and 100% | kinase still bound, per cent of control (STK38L (human)): 100% | kinase still bound, per cent of control [7]: 96% | kinase still bound, per cent of control (MYLK3 (human)): 100% | kinase still bound, per cent of control (STK32B (human)): 100% | kinase still bound, per cent of control [8]: 100%
